These results are taken from patent US9598441B2, “Therapeutic compounds and methods” (Wayne State University, priority 2011, dated 2017).

The target in the assay is T1, CARP-1 binding with APC-2 (Homo sapiens, UniProt Q8IX12).
T1 construct: made in house; host or cells: E. coli BL-21 (DE3)
T1 sequence (Q8IX12 951-980 limits assumed): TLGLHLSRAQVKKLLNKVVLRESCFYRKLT
The experiment in a line: Fluorescence polarization assay (FPA) for inhibitors of CARP-1-APC-2 binding. The following applies: fluorescein-tagged A-epitope peptide and Gst-APC-2 (685-754). On the procedure:
Although, several formats for FP are indicated in the published literature (Inglese, J., Johnson, R. L., Simeonov, A., Xia, M., Zheng, W., Austin, C. P., Auld, D. S. (2007) Nat. Chem. Biol. 3(8), 466-79), the assays using 96-well or higher density plates are often and routinely employed. Optimization of FP for HTS involves several steps including the determination of Kd values, optimization of the buffer conditions, incubation and measurement times, and determination of the DMSO tolerance of the assay. Our goal was to minimize variation and to aim for adequate signal:background without adversely effecting the sensitivity of the assay. The FP polarization values in milli-polarization (mp) were measured to determine changes in the mp (Amp=mp of bound peptide mp of free peptide), the Kd and Ki constants of the binding. A 30-mer CARP-1 peptide that contained APC-2-binding epitope (A-epitope peptide) was commercially synthesized (US Biologicals, MA), labeled with fluorescein at the N-terminus, and purified to >98% purity. Increasing concentrations of A-epitope peptide were incubated with the indicated quantities of the affinity-purified Gst-APC-2 (685-754) protein in assay buffer containing 0.01% triton-X100. Affinity-purified Gst-NEMO (221-317) was included as a negative control. The Δmp was measured by excitation at 485 nm and emission at 538 nm.
The kinetics of CARP-1 binding with APC-2 was determined, and whether this binding could be exploited to identify SMIs of CARP-1-APC-2 interaction was investigated. For this purpose, a FPA utilizing the affinity-purified Gst-APC-2 (685-754) protein and the fluorescein-tagged A-epitope peptide was developed as detailed in methods. […] The signal to background ratio of 6 underscored robustness of this assay. Since, the quality (precision) and suitability of the FPA for HTS is usually defined by the Z′ factor (25, 40), we utilized the positive and negative control mean signals (μc+ and μc−, respectively) and their standard deviations (σc+ and σc−) to calculate the Z′ factor using the equation Z′=1−[3(σc++σc−)/(μc+−μc−)]. […]
In general terms: In fluorescence polarisation assays a small probe gives low polarisation when free and higher when bound to something large.

Broadly, the IC50 is the concentration that gives 50% inhibition. As for `Cc1cc(Br)cc2c1NC(=O)/C2=C1\SC(=S)NC1=O` [CFM-1, (Z)-5-(5-bromo-7-methyl-2-oxoindolin-3-ylidene)-2-thioxothiazolidin-4-one], the IC50 was 4.1 µM.

Turning to `O=C1N(Cc2ccccc2Cl)c2ccccc2C12NN=C(c1ccccc1)S2` (centres unmarked) [CFM-4, 1-(2-chlorobenzyl)-5′-phenyl-3′H-spiro[indoline-3,2′-[1,3,4]thiadiazol]-2-one], the IC50 came to 0.75 µM.
